Source: ChEMBL document CHEMBL1121778, “5,7-Dihydroxy-2-aminotetralin derivatives: synthesis and assessment of dopaminergic and adrenergic actions” (1981)
The source made the active and inactive calls. The calls are words filed in the database; no cut-off is given here.

Assays:
Felis catus [1] = test: Change in heart rate(beats/min) of the cat on intravenous administration of 0.01 umol/kg of the compound.; type: functional
Canis familiaris [2] = species: Canis familiaris; test: Compound was tested for emesis(active expulsion of fluid or solid matter)in dog; type: functional; settings: Canis lupus familiaris
Felis catus [3] = test: Percentage change in arterial pressure of the cat on intravenous administration of 0.01 umol/kg of the compound.; type: functional, Artery
Felis catus [4] = species: Felis catus; test: Potency relative to apomorphine.; type: functional
Felis catus [5] = test: Change in heart rate(beats/min) of the cat on intravenous administration of 0.033 umol/kg of the compound.; type: functional
Felis catus [6] = test: Change in heart rate(beats/min) of the cat on intravenous administration of 0.10 umol/kg of the compound.; type: functional
Felis catus [7] = species: Felis catus; test: Compound was tested for the inhibition of cat cardioaccelerator nerve stimulation; type: functional
Felis catus [8] = test: Percentage change in arterial pressure of the cat on intravenous administration of 0.10 umol/kg of the compound.; type: functional, Artery
Canis familiaris [9] = test: Compound was tested for increase in renal blood flow in dog anesthetized with sodium pentobarbitol (30 mg/kg, iv) and systemic blood pressure and heart rate were recorded; Inactive at 2 umol/kg; type: functional, organism-based; settings: Canis lupus familiaris
Felis catus [10] = test: Percentage change in arterial pressure of the cat on intravenous administration of 0.033 umol/kg of the compound.; type: functional, Artery
Felis catus [11] = test: Percentage change in arterial pressure of the cat on intravenous administration of 1.09 umol/kg of uM/kg of the compound.; type: functional, Artery
Felis catus [12] = test: Change in heart rate(beats/min) of the cat on intravenous administration of 0.36 umol/kg the compound.; type: functional
Felis catus [13] = test: Compound was tested for the inhibition of cat cardioaccelerator nerve stimulation; Inactive at 2 umol/kg iv; type: functional, organism-based
Felis catus [14] = test: Change in heart rate(beats/min) of the cat on intravenous administration of 1.09 umol/kg of the compound.; type: functional
Canis familiaris [15] = test: Compound was tested for emesis(active expulsion of fluid or solid matter)in dog at 2 umol/kg sc; No emesis produced; type: functional, organism-based; settings: Canis lupus familiaris
Felis catus [16] = test: Percentage change in arterial pressure of the cat on intravenous administration of 0.36 umol/kg of the compound.; type: functional, Artery
Felis catus [17] = test: Change in heart rate(beats/min) of the cat on intravenous administration of 0.1 uM/kg of the compound.; type: functional
Felis catus [18] = test: Change in heart rate(beats/min) of the cat on intravenous administration of 0.03 umol/kg of the compound.; type: functional
Felis catus [19] = test: Percentage change in arterial pressure of the cat on intravenous administration of 0.1 uM/kg of the compound.; type: functional, Artery
Felis catus [20] = test: Percentage change in arterial pressure of the cat on intravenous administration of 0.03 umol/kg of the compound.; type: functional, Artery
Felis catus [21] = test: %change in arterial pressure of the cat on intravenous administration of 0.038 umol/kg the compound.; type: functional, Artery
Felis catus [22] = test: change in heart rate(beats/min) of the cat on intravenous administration of 0.115 umol/kg of the compound.; type: functional
Felis catus [23] = test: change in heart rate(beats/min) of the cat on intravenous administration 0.038 umol/kg of the compound.; type: functional
Felis catus [24] = test: change in heart rate(beats/min) of the cat on intravenous administration of 0.38 umol/kg of the compound.; type: functional
Felis catus [25] = test: %change in arterial pressure of the cat on intravenous administration of 0.38 umol/kg of the compound.; type: functional, Artery
Felis catus [26] = test: %change in arterial pressure of the cat on intravenous administration 0.115 umol/kg of the compound.; type: functional, Artery
Felis catus [27] = test: Change in heart rate(beats/min) of the cat on intravenous administration of 0.009 umol/kg of the compound.; type: functional
Felis catus [28] = test: Percentage change in arterial pressure of the cat on intravenous administration of 0.009 umol/kg of the compound.; type: functional, Artery
Felis catus [29] = test: Change in heart rate(beats/min) of the cat on intravenous administration of 0.003 umol/kg of the compound.; type: functional
Felis catus [30] = test: Percentage change in arterial pressure of the cat on intravenous administration of 0.003 umol/kg of the compound.; type: functional, Artery
Felis catus [31] = test: Change in heart rate(beats/min) of the cat on intravenous administration at 0.008 umol/kg; type: functional
Felis catus [32] = test: Percentage change in arterial pressure of the cat on intravenous administration at 0.008 umol/kg; type: functional, Artery
Felis catus [33] = test: Percentage change in arterial pressure of the cat on intravenous administration of 0.016 umol/kg of the compound.; type: functional, Artery
Felis catus [34] = species: Felis catus; test: Compound was tested for the inhibition of cat cardioaccelerator nerve stimulation,; type: functional
Felis catus [35] = test: Change in heart rate(beats/min) of the cat on intravenous administration of 0.016 umol/kg of the compound.; type: functional
Felis catus [36] = test: Percentage change in arterial pressure of the cat on intravenous administration of 0.032 umol/kg of the compound.; type: functional, Artery
Canis familiaris [37] = species: Canis familiaris; test: Compound was tested for emesis(active expulsion of fluid or solid matter)in dog, activity expressed as ED50.; type: functional; settings: Canis lupus familiaris
Felis catus [38] = species: Felis catus; test: Compound was tested for the inhibition of cat cardioaccelerator nerve stimulation, activity expressed as ED50.; type: functional
Felis catus [39] = test: Change in heart rate(beats/min) of the cat on intravenous administration of 0.11 umol/kg of the compound.; type: functional
Felis catus [40] = test: Compound was tested for the inhibition of cat cardioaccelerator nerve stimulation; […]; type: functional, organism-based
Felis catus [41] = test: Percentage change in arterial pressure of the cat on intravenous administration of 0.99 umol/kg of the compound.; type: functional, Artery
Felis catus [42] = test: Change in heart rate(beats/min) of the cat on intravenous administration of 0.33 umol/kg of the compound.; type: functional
Felis catus [43] = test: Percentage change in arterial pressure of the cat on intravenous administration of 0.11 umol/kg of the compound.; type: functional, Artery
Felis catus [44] = test: Change in heart rate(beats/min) of the cat on intravenous administration of 0.99 umol/kg of the compound.; type: functional
Felis catus [45] = test: Percentage change in arterial pressure of the cat on intravenous administration of 0.33 umol/kg of the compound.; type: functional, Artery

Br.CCNC1CCc2c(O)cc(O)cc2C1 (centres undefined)
Heart rate (Felis catus [1]): -6.6 beats min-1 | ED50 (Canis familiaris [2]): 0.36 µmol/kg | Change (Felis catus [3]): -6.3% | Relative potency (Felis catus [4]): 1.04 | Heart rate (Felis catus [5]): -10.6 beats min-1 | Heart rate (Felis catus [6]): -6 beats min-1 | ED50 (Felis catus [7]): 0.04 µmol/kg | Change (Felis catus [8]): -19.6% | Increase (Canis familiaris [9]): inactive | Change (Felis catus [10]): -18.5%

Br.CNC1CCc2c(O)cc(O)cc2C1 (centres undefined)
Change (Felis catus [11]): 84.2% | Heart rate (Felis catus [12]): 26.7 beats min-1 | ED50 (Felis catus [13]): inactive | Heart rate (Felis catus [14]): 44 beats min-1 | ED50 (Canis familiaris [15]): No emesis produced | Increase (Canis familiaris [9]): inactive | Change (Felis catus [16]): 49.7%

Br.CN(C)C1CCc2c(O)cc(O)cc2C1 (centres undefined)
Heart rate (Felis catus [1]): 0 beats min-1 | Heart rate (Felis catus [17]): 12.8 beats min-1 | Change (Felis catus [3]): 4.1% | Heart rate (Felis catus [18]): 0.6 beats min-1 | Relative potency (Felis catus [4]): 1.45 | Change (Felis catus [19]): 23.2% | ED50 (Felis catus [7]): 0.021 µmol/kg | Change (Felis catus [20]): 8%

Br.NC1CCc2c(O)cc(O)cc2C1 (centres undefined)
Change (Felis catus [21]): 19.7% | Heart rate (Felis catus [22]): 3.6 beats min-1 | Heart rate (Felis catus [23]): 0 beats min-1 | Heart rate (Felis catus [24]): 17.6 beats min-1 | ED50 (Felis catus [13]): inactive | Change (Felis catus [25]): 30.5% | ED50 (Canis familiaris [15]): No emesis produced | Increase (Canis familiaris [9]): inactive | Change (Felis catus [26]): 21.6%

Br.CCN(CC)C1CCc2c(O)cc(O)cc2C1 (centres undefined)
Heart rate (Felis catus [27]): -23 beats min-1 | Relative potency (Felis catus [4]): 1.4 | Heart rate (Felis catus [5]): -25 beats min-1 | Change (Felis catus [28]): -23% | ED50 (Felis catus [7]): 0.024 µmol/kg | Heart rate (Felis catus [29]): -2.1 beats min-1 | Increase (Canis familiaris [9]): inactive | Change (Felis catus [10]): -25% | Change (Felis catus [30]): -8.7%

CN1CCc2cccc3c2[C@H]1Cc1ccc(O)c(O)c1-3 [APOMORPHINE]
Heart rate (Felis catus [31]): -4.3 beats min-1 | Change (Felis catus [32]): -9.9% | Relative potency (Felis catus [4]): 1 | Change (Felis catus [33]): -11.5% | ED50 (Felis catus [34]): 0.022 µmol/kg | Heart rate (Felis catus [35]): -6.5 beats min-1 | Change (Felis catus [36]): -18.2% | ED50 (Canis familiaris [37]): 0.142 µmol/kg

Br.CCCN(CCC)C1CCc2c(O)cc(O)cc2C1 (centres undefined)
Heart rate (Felis catus [27]): -4.8 beats min-1 | Relative potency (Felis catus [4]): 0.95 | Heart rate (Felis catus [5]): -5.6 beats min-1 | Change (Felis catus [28]): -17.2% | Heart rate (Felis catus [29]): -3.6 beats min-1 | Increase (Canis familiaris [9]): inactive | ED50 (Felis catus [38]): 0.035 µmol/kg | Change (Felis catus [10]): -27.2% | Change (Felis catus [30]): -12.2%

Br.CC(C)NC1CCc2c(O)cc(O)cc2C1 (centres undefined)
Heart rate (Felis catus [39]): 3.2 beats min-1 | ED50 (Felis catus [40]): inactive | Change (Felis catus [41]): 25.2% | Heart rate (Felis catus [42]): 7.7 beats min-1 | Change (Felis catus [43]): 16.9% | Heart rate (Felis catus [44]): 14.4 beats min-1 | ED50 (Canis familiaris [15]): inactive | Increase (Canis familiaris [9]): inactive | Change (Felis catus [45]): 19.7%
